Laboratory results reported in ChEMBL document CHEMBL4219107, “Synthesis and evaluation of 1H-pyrrole-2,5-dione derivatives as cholesterol absorption inhibitors for suppressing the formation of foam cells and inflammatory response” (Bioorg Med Chem, 2018).
Active and inactive are the calls of the source. No cut-off for these calls is given here.

Key:
RAW264.7 [1] = test: Antiinflammatory activity against mouse RAW264.7 cells assessed as decrease in cholesterol-methyl-beta-cyclodextrin-induced ROS level at 30 uM relative to control; type: functional; parameters: scale not given: the % may be the effect or the level left
[2] = molecular target: NPC1-like intracellular cholesterol transporter 1 (Mus musculus) (UniProt Q6T3U4); test: Inhibition of NPC1L1-mediated cholesterol-methyl-beta-cyclodextrin accumulation in mouse RAW264.7 cells assessed as decrease in foam cell formation by measuring decrease in MDA level at 30 uM relative to control; type: cell-based; parameters: scale not given: the % may be the effect or the level left
[3] = molecular target: NPC1-like intracellular cholesterol transporter 1 (Mus musculus) (UniProt Q6T3U4); test: Inhibition of NPC1L1 in mouse RAW264.7 cells assessed as decrease in choleserol-D7 absorption at 30 uM after 72 hrs by LC-MS/MS analysis relative to control; type: cell-based
[4] = molecular target: NPC1-like intracellular cholesterol transporter 1 (Mus musculus) (UniProt Q6T3U4); test: Inhibition of NPC1L1-mediated cholesterol-methyl-beta-cyclodextrin accumulation in mouse RAW264.7 cells incubated for 72 hrs by Oil Red O/hematoxyline staining based microscopic analysis; type: cell-based
[5] = Cytotoxicity against HEK293 cells after 48 hrs by MTT assay; type: cell-based; conditions: human, read-out: LC50
[6] = molecular target: NPC1-like intracellular cholesterol transporter 1 (Mus musculus) (UniProt Q6T3U4); test: Inhibition of NPC1L1-mediated cholesterol-methyl-beta-cyclodextrin accumulation in mouse RAW264.7 cells assessed as decrease in foam cell formation by measuring decrease in LDH level at 30 uM relative to control; type: cell-based; parameters: scale not given: the % may be the effect or the level left
RAW264.7 [7] = test: Antiinflammatory activity against mouse RAW264.7 cells assessed as decrease in cholesterol-methyl-beta-cyclodextrin-induced TNFalpha release at 30 uM relative to control; type: functional; parameters: scale not given: the % may be the effect or the level left
[8] = molecular target: T1, NPC1-like intracellular cholesterol transporter 1 (Homo sapiens) (UniProt Q9UHC9); test: Inhibition of NPC1L1 in human Caco2 cells assessed as decrease in cholesterol uptake at 100 uM preincubated for 24 hrs followed by stigmosterol substrate addition measured after 24 hrs by HPLC method relative to control; type: cell-based
T1 sequence (whole entry): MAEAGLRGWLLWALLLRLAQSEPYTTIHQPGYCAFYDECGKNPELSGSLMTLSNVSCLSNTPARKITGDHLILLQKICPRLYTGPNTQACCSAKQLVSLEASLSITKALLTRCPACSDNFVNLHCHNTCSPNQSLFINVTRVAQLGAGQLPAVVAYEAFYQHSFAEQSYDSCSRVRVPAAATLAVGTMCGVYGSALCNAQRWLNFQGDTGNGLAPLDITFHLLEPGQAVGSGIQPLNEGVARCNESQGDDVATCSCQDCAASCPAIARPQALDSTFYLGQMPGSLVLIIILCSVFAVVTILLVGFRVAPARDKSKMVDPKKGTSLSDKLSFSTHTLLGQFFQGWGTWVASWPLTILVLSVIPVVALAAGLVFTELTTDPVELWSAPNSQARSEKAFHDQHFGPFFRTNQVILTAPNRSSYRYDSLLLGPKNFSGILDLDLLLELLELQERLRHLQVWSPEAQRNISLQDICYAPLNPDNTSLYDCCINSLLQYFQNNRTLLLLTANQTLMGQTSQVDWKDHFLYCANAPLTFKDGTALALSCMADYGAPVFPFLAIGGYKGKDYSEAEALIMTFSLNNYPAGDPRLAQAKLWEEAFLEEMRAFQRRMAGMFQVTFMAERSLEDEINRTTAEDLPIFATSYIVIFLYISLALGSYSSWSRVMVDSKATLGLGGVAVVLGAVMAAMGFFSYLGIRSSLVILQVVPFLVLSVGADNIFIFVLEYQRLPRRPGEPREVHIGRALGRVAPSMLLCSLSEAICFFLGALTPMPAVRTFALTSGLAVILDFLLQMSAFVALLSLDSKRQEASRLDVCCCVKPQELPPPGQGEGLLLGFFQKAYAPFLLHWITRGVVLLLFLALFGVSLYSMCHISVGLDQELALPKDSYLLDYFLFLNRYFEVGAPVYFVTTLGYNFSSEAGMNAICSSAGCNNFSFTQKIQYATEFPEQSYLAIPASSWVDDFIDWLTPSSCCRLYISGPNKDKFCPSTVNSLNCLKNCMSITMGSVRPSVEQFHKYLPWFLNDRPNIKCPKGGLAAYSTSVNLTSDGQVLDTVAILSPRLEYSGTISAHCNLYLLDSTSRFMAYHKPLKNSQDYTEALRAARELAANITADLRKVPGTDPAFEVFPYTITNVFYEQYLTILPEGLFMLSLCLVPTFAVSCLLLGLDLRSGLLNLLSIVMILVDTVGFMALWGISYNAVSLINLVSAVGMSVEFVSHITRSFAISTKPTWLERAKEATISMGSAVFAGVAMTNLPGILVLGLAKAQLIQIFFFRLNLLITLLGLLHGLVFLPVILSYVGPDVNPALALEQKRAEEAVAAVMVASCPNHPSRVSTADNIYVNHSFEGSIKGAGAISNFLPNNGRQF

[9] = Cytotoxicity against mouse RAW264.7 cells after 48 hrs by MTT assay; type: cell-based; conditions: read-out: LC50
[10] = Octanol-water partition coefficient, log P of the compound measured after 4 hrs by HPLC analysis; type: physicochemical
[11] = molecular target: T1, NPC1-like intracellular cholesterol transporter 1 (Homo sapiens); test: Inhibition of NPC1L1 in human Caco2 cells assessed as decrease in cholesterol uptake at 100 uM preincubated for 24 hrs followed by stigmosterol substrate addition measured after 24 hrs by HPLC method; type: cell-based
RAW264.7 [12] = test: Antiinflammatory activity against mouse RAW264.7 cells assessed as decrease in cholesterol-methyl-beta-cyclodextrin-induced TNFalpha release; type: functional, cell-based
[13] = molecular target: NPC1-like intracellular cholesterol transporter 1 (Mus musculus) (UniProt Q6T3U4); test: Inhibition of NPC1L1-mediated cholesterol-methyl-beta-cyclodextrin accumulation in mouse RAW264.7 cells assessed as decrease in foam cell formation by measuring decrease in LDH level; type: cell-based
RAW264.7 [14] = test: Antiinflammatory activity against mouse RAW264.7 cells assessed as decrease in cholesterol-methyl-beta-cyclodextrin-induced ROS level; type: functional, cell-based
[15] = molecular target: NPC1-like intracellular cholesterol transporter 1 (Mus musculus) (UniProt Q6T3U4); test: Inhibition of NPC1L1-mediated cholesterol-methyl-beta-cyclodextrin accumulation in mouse RAW264.7 cells assessed as decrease in foam cell formation by measuring decrease in MDA level; type: cell-based

Sequence of NPC1-like intracellular cholesterol transporter 1 (Mus musculus) (Q6T3U4 21-1333 limits assumed): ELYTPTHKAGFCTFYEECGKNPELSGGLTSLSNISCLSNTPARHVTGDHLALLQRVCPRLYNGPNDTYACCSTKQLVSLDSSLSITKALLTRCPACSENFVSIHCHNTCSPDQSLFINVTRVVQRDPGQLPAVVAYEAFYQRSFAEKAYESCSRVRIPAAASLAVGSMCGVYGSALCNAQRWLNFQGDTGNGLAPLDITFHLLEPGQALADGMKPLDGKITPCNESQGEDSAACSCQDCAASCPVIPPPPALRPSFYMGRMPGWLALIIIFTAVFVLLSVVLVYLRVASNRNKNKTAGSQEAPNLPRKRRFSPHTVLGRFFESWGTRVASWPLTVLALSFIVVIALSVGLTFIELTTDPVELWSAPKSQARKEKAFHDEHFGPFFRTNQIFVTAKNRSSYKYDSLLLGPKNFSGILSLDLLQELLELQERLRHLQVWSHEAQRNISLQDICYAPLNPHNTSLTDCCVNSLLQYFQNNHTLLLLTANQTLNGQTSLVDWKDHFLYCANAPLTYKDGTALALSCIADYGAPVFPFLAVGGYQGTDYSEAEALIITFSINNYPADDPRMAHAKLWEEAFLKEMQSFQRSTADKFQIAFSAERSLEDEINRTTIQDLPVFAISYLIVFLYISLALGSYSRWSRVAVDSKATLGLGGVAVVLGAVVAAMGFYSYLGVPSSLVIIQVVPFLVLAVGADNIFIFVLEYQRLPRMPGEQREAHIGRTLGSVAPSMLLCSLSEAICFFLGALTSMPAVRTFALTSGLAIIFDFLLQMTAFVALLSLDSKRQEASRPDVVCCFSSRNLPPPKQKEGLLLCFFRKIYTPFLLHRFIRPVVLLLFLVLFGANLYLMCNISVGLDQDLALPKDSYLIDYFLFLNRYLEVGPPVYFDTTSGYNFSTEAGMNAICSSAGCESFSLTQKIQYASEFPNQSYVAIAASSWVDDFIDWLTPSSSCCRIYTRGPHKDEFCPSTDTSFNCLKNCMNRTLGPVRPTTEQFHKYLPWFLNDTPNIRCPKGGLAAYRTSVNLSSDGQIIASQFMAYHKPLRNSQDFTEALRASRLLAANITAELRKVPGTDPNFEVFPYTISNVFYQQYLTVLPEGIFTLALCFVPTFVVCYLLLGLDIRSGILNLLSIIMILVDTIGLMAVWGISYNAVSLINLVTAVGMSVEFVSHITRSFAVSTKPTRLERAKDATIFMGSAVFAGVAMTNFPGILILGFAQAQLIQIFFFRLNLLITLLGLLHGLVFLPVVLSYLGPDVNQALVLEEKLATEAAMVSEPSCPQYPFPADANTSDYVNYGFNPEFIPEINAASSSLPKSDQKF

| SMILES | CC50 at 48 h [5] | CC50 at 48 h [9] | logP at 4 h [10] | inhibition [11] | also measured |
| --- | --- | --- | --- | --- | --- |
| O=C1[C@H](CC[C@H](O)c2ccc(F)cc2)[C@@H](c2ccc(O)cc2)N1c1ccc(F)cc1 [EZETIMIBE] | 57.6 µM | 44.2 µM | – | – | Activity (RAW264.7 [1]): 46.5%; Activity [2]: 76.3%; inhibition [3]: 80.3%; inhibition [4]: Dose-dependent effect; Activity [6]: 36.4%; Activity (RAW264.7 [7]): 30.9%; inhibition [8]: 51.3% |
| CCN(CC)CCCCOc1ccc(C2=C(c3ccc(F)cc3)C(=O)N(CCC(O)(c3ccccc3)c3ccccc3)C2=O)cc1 | 47.3 µM | 43.2 µM | > 5 | – | inhibition [8]: 69.6 to 72.6% |
| CCN(CC)CCCOc1ccc(C2=C(c3ccc(F)cc3)C(=O)N(CCC(O)(c3ccccc3)c3ccccc3)C2=O)cc1 | 32.7 µM | 37.6 µM | > 5 | – | inhibition [8]: 69.6 to 72.6% |
| CCN(CC)CCOc1ccc(C2=C(c3ccc(F)cc3)C(=O)N(CCC(O)(c3ccccc3)c3ccccc3)C2=O)cc1 | 31.5 µM | 32.7 µM | > 5 | – | inhibition [8]: 69.6 to 72.6% |
| CCc1ccc(S(=O)(=O)NCCCCN2C(=O)C(c3ccc(F)cc3)=C(c3ccc(OCC(=O)NCC(=O)NCC(=O)O)cc3)C2=O)cc1 | > 100 µM | > 100 µM | 2 to 4 | Active | – |
| O=C1C(c2ccc(O)cc2)=C(c2ccc(F)cc2)C(=O)N1CCC(O)(c1ccccc1)c1ccccc1 | > 100 µM | > 100 µM | 2 to 4 | Active | Activity (RAW264.7 [12]): Dose-dependent effect; Activity (RAW264.7 [1]): 51%; Activity [2]: 79.6%; inhibition [3]: 67.9%; inhibition [4]: Dose-dependent effect; inhibition [13]: Dose-dependent effect; Activity (RAW264.7 [14]): Dose-dependent effect; Activity [6]: 33.3%; Activity (RAW264.7 [7]): 35.1%; inhibition [15]: Dose-dependent effect |
| CCc1ccc(S(=O)(=O)NCCCN2C(=O)C(c3ccc(O)cc3)=C(c3ccc(F)cc3)C2=O)cc1 | 11.5 µM | 17.2 µM | 2 to 4 | Active | – |
| O=C1C(c2ccc(F)cc2)=C(c2ccc(OCCCS(=O)(=O)O)cc2)C(=O)N1CCC(O)(c1ccccc1)c1ccccc1 | – | – | – | inactive | – |
| O=C1C(c2ccc(F)cc2)=C(c2ccc(OCCCCS(=O)(=O)O)cc2)C(=O)N1CCC(O)(c1ccccc1)c1ccccc1 | – | – | – | inactive | – |
| Cc1ccc(S(=O)(=O)NCCCCN2C(=O)C(c3ccc(F)cc3)=C(c3ccc(OCC(=O)NCC(=O)NCC(=O)O)cc3)C2=O)cc1 | > 100 µM | > 100 µM | 2 to 4 | Active | – |
| O=C1C(c2ccc(O)cc2)=C(c2ccc(F)cc2)C(=O)N1CCCNS(=O)(=O)c1ccc(OC(F)(F)F)cc1 | 24.8 µM | 41.2 µM | 2 to 4 | Active | – |
| O=C1C(c2ccc(O)cc2)=C(c2ccc(F)cc2)C(=O)N1CCCNS(=O)(=O)c1ccc(C(F)(F)F)cc1 | 19.7 µM | 34.3 µM | 2 to 4 | Active | – |
| O=C1C(c2ccc(F)cc2)=C(c2ccc(OCCS(=O)(=O)O)cc2)C(=O)N1CCC(O)(c1ccccc1)c1ccccc1 | – | – | – | inactive | – |
| CCc1ccc(S(=O)(=O)NCCN2C(=O)C(c3ccc(O)cc3)=C(c3ccc(F)cc3)C2=O)cc1 | 80.4 µM | > 100 µM | 2 to 4 | Active | – |
